Some results are limits rather than exact numbers.

For experiment [1], the target named is T1, DOR (Mus musculus, UniProt P32300). The experiment can be described thus: Competition binding against [125I]-3.
A further experiment has as its target MOR (Mus musculus, UniProt P42866). The experiment can be described thus: Competition binding against [125I]BNtxA in MOR-CHO membranes.
Another experiment addresses KOR (Mus musculus, UniProt P33534). The experiment can be described thus: Competition binding against [125I]BNtxA in KOR-CHO membranes.
Another experiment addresses 6TM/E11 sites (Mus musculus, UniProt P42866). The experiment is classed as binding.
Experiment [2] addresses T1, DOR. The experiment is described as follows: [125I]-3 saturation binding in DOR-CHO membranes. The conditions noted are these: mean ± SEM.

As usually defined, the Ki is the dissociation constant of the complex between target and ligand, obtained from inhibition or displacement. `Oc1ccc2c3c1O[C@H]1c4oc5ccccc5c4C[C@@]4(O)[C@@H](C2)N(CC2CC2)CC[C@]314` [Naltriben]: the affinity on DOR [1] corresponds to a Ki of 0.14 ± 0.04 nM.
As to `Oc1ccc2c3c1O[C@H]1c4[nH]c5ccccc5c4C[C@@]4(O)[C@@H](C2)N(CC2CC2)CC[C@]314` [Naltrindole], the Ki on DOR [1] was 0.79 ± 0.16 nM.
In the case of `CC(C)[C@H](NC(=O)[C@H](CCC(=O)O)NC(=O)[C@H](Cc1ccccc1)NC(=O)[C@@H](C)NC(=O)[C@@H](N)Cc1ccc(O)cc1)C(=O)N[C@H](C(=O)NCC(N)=O)C(C)C` [[D-Ala^2]deltorphin II, Tyr-D-Ala-Phe-Glu-Val-Val-Gly-NH2], the Ki on MOR, on KOR and on 6TM/E11 sites was more than 1000 nM each time.
Compound “Tyr-D-Ala-(p-^125I)Phe-Glu-Ile-Ile-Gly-NH2 [[^125I]-3]” had a Bmax on DOR [2] of 196.97 ± 12.44 fmol/mg.

The values are drawn from article PMC4472604 (ACS chemical neuroscience, 2015).
